Results taken from patent US7482008B1, “Human T cell reactive feline protein (TRFP) isolated from house dust and uses therefor” (Merck Patent GmbH, priority 1989, dated 2009).

Legend:
human IgE = assay: Western blot and ELISA of human IgE binding to affinity purified TRFP
Description: A protein preparation was extracted from the contents of vacuum cleaner bags by a method based on that of M. D. Chapman and co-workers. Chapman, M. D. et al., J. Immunol., 140(3): 812-818 (1988). Monoclonal antibody reactive with Fel d I, produced by Chapman and co-workers, was used to identify a protein in the preparation. de Groot, H. et al., J. Allergy Clin. Immunol., 82:778-786 (1988). Selected monoclonal antibodies (designated 1G9 and 6F9) that recognize Fel d I native protein were used to affinity purify a protein, which is referred to as human T cell reactive feline protein (TRFP) (also referred to as VCB or vacuum cleaner bag protein) from a house dust sample. This was carried out, using known techniques, by producing the desired monoclonal antibody, isolating it in large quantities from ascites and immobilizing it on Sepharose 4B (Pharmacia). The protein preparation was extracted from vacuum cleaner bags of house dust obtained from several homes with cats. Aqueous vacuum cleaner bag extract was first subjected to gel filtration and decolorization and, subsequently, affinity chromatography purification. Aqueous vacuum cleaner bag extract was passed over the monoclonal antibody-containing column and a protein species was eluted. […] The affinity purified TRFP was subjected to a number of protein chemical procedures to derive primary amino sequence data. […]

Balb/c mice = assay: Oral rChain 1, single vs multiple doses, protocol 3; assay type: in vivo, mouse
Description: Five groups of five age-matched Balb/c mice were fed on days −7, −5 and −2 with 250 μg rChain 1 (Groups 1 and 4), 750 μg rChain 1 (Group 2), or with PBS (Groups 3 and 5). On day 0, the mice in Groups 1-3 were challenged with a s.c. injection of 100 μg rChain 1 in CFA, while the mice in Groups 4 and 5 were not challenged. On day 12 the draining and mesenteric lymph nodes and spleens were removed for proliferation, IL-2, IL-4 and TGF-beta assays.
The draining lymph nodes (i.e., inguinal, paraaortic and popliteal), the mesenteric lymph nodes, and the spleen were surgically removed from the animals 10-12 days after antigen challenge. Cells from these tissues were suspended by being forced through a stainless steel mesh with a glass pestle. The cells were washed twice in RPMI 1640 medium with a 1% fetal calf serum (FCS) before culture. All cells were cultured at 37° C. in 5% CO2 in RPMI 1640 with 10% FCS (no. F4884, Sigma), 100 units of penicillin G per ml, 10 μg of streptomycin per ml, 10 mM glutamine, and 0.05 mM 2-mercaptoethanol. […]. Cells were cultured in triplicate, 0.2 ml per well at 4×10^6 cells per ml, in 96-well plates. Supernatants were removed from the wells after 24 hours to test for the production of IL-2 or IL-3 and were frozen to kill any transferred cells or removed after 48 hours for testing IL-4 production. Separate triplicate wells were incubated for 96 hours for the proliferation assay. The supernatants were kept at […] for several days to kill transferred cells.
Lymph node of spleen cells were plated in a flat bottom 96-well plate (4×10^5/well) in 100 μl medium. Peptide or recombinant protein or control solution (100 μl) is added to each well and the cells allowed to incubate for 1 day at 37° C. On day 2, the cultures were pulsed with [^3H] thymidine (1 μCi per well in 50 μl of medium; 1 Ci=37 GBq) for 4 to 6 hours, and on day 3, the plates were harvested with a 96-well harvester (Tomtec, Orange, Conn.) and counted on a Betaplate scintillation counter (Pharmacia, Upsaala Sweden).
To measure IL-2, supernatants were tested after thawing for the ability to support the growth of an IL-2-dependent line such as CTLL-2 (University of California, Berkeley). The cell line was maintained by passage in 10% supernatant of Con A-stimulated (5 μg/ml) rat spleen cells. This cell line is dependent almost exclusively on IL-2 for growth and survival, proliferating only weakly to high doses of recombinant IL-4. […] After a 24 hour incubation, the cells were pulsed with [^3H] thymidine (1 μCi per well in 50 μl of medium; 1 Ci=37 GBq) for 4 to 6 hours and the plates were harvested with a 96-well harvester (Tomtec, Orange, Conn.) and counted on a Betaplate scintillation counter (Pharmacia, Upsaala Sweden). […]

mice = assay: Specificity of peptide-induced unresponsiveness (peptide Y vs MI-05); assay type: in vivo, mouse; conditions: subcutaneous injection in saline

## TRFP: human T cell reactive feline protein affinity purified from house dust; two covalently linked chains
Human IgE
  human IgE binding: bind human IgE

## recombinant chain 1: recombinant TRFP chain 1 expressed in E. coli
Balb/c mice; cultured with rChain 1, Peptide X, and Peptide Y
  production of IL-2 by mesenteric lymph node cells: detectable tolerizing effect
Balb/c mice; mouse, in vivo
  spleen cell response to peptide X: not changed
  spleen cell response to rChain 1 and peptide Y: moderately decreased
Balb/c mice; mouse, in vivo, po
  draining node response, single oral 750 μg vs several doses of 250 μg: more effective

## peptide Y: amino acid residues 29-55 from chain 1 of TRFP (SEQ. ID. NO: 18) (KALPVVLENARILKNCVDAKMTEEDKE)
mice
  responses to MI-05: did not affect responses to MI-05
  responsiveness to peptide Y: decreased responsiveness to peptide Y
